Test [1] relates to KU812 leukemia cells (Bcr-Abl). Description: Proliferation of KU812 cells, calcein assay by flow cytometry. It is filed as cell-based. The following applies: Homo sapiens, KU812, 72 h, read-out: KU812 cells IC50 (proliferation). How it is done:
The proliferation of KU812 cells was assayed using the calcein viability assay described in Assay 3 but adapted for quantification by flow cytometry, briefly as follows: cells were recovered from sub-confluent plates by trypsinization and re-plated at a density of 1,000 cells/well in 24 well plates and incubated 24 hours to allow adherence. The media (RPMI-1640 supplemented with 10% FCS and Pen/Strep) was aspirated from each well and replaced with media containing the compound at a range from 0 to 0.250 μM. The plates were incubated for 3 days corresponding to approximately three cell cycles. Cellular viability was determined with the Calcein AM assay as follows. The cells were washed twice in PBS and incubated with 5 μM Calcein AM/PBS for 75 minutes before determining fluorescent units with a fluorescent plate reader. The Calcein AM assay was adapted for the flow cytometer by including an additional 1:16,000 dilution of the Calcein AM in PBS of which 200 ul was added to each sample of cells.

The test system of test [2] is adriamycin resistant cell line (ADR-res). The test is described as follows: NCI panel, adriamycin resistant cell line, SRB assay. It is filed as cell-based. The following applies: Homo sapiens, 48 h. The procedure, abridged:
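Cells in RPMI-1640/10% FCS plated at 5,000–40,000 cells/well, preincubated 24 h at 37° C, 5% CO2, then exposed 48 h to compound at 5 doses spanning 4 logs. Viability by sulforhodamine B total-protein staining after cold TCA fixation; absorbance read at 515 nm.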

In test [3] the target is T1, Rsk3 (Homo sapiens, UniProt Q15349).
T1 construct: purchased Upstate 14-462
T1 sequence (Q15349 whole entry, species assumed): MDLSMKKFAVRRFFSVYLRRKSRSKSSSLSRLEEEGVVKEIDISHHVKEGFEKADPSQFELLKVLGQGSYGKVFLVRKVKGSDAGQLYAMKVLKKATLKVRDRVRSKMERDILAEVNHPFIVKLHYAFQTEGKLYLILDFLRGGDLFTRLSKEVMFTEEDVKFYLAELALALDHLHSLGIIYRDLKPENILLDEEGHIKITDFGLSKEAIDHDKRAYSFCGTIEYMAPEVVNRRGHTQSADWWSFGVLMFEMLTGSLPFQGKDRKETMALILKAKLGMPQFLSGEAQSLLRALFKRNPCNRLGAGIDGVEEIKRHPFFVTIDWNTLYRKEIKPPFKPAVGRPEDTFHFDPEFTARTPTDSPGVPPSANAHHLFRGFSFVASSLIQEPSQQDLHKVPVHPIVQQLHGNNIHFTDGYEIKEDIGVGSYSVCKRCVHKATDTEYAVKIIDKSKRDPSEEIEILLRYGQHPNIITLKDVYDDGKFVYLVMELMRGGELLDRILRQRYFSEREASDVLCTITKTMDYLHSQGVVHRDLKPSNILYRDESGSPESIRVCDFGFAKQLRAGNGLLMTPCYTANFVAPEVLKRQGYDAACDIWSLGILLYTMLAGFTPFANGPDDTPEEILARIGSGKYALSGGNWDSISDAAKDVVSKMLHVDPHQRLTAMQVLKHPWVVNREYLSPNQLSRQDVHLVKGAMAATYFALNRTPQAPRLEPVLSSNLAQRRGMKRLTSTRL
Description: Rsk3 kinase assay. It is filed as biochemical. How it is done: • 1. 2.5× Reaction Buffer: 20 mM MOPS, pH 7.0, 1 mM EGTA. • 2. Enzyme Dilution Buffer (EDB): 20 mM MOPS, pH 7.0, 1 mM EDTA, 0.01% Brij-35, 5% glycerol, 0.1% β-mercaptoethanol, 1 mg/ml BSA. • 3. RSK3, active: Dilute to 4-40 ng/μl with EDB. Use 2.5 μl per assay point. • 4. MAPKAP Kinase 2 substrate peptide (Catalog #12-240): Prepare a 2.5 mM stock. Use 2.5 μl per assay point for a final concentration of 250 μM per assay. • 5. Magnesium/ATP Cocktail (Catalog #20-113): 75 mM MgCl2 and 500 μM ATP in 20 mM MOPS, pH 7.2, 25 mM β-glycerol phosphate, 5 mM EGTA, 1 mM sodium orthovanadate, 1 mM dithiothreitol. • 6. [γ-^32P]ATP: Stock 1 mCi/100 μl (3000 Ci/mmol, obtained from PerkinElmer, Catalog #BLU002A). Make 10 μl aliquots (100 μCi/vial). Before starting the assay, dilute the Magnesium/ATP Cocktail 1:1 with sterile, distilled water. Then dilute an aliquot of [γ-^32P]ATP to 1 μCi/μl with 90 μl of the diluted Magnesium/ATP Cocktail. […]
• 1. Add 10 μl of 2.5× Reaction Buffer per assay. • 2. Add 2.5 μl of MAPKAP Kinase 2 substrate peptide. • 3. Add 2.5 μl of RSK3, active (10-100 ng). • 4. Add 10 μl of the diluted [γ^32P]ATP mixture. • 5. Incubate for 10 minutes at 30° C. • 6. Transfer a 20 μl aliquot onto the center of a 2 cm×2 cm P81 paper. • 7. Wash the assay squares three times for 5 minutes with 0.75% phosphoric acid. • 8. Wash the assay squares once for 5 minutes with acetone. • 9. Transfer the assay squares to vial and add 5 ml scintillation cocktail. • 10. Read in scintillation counter. Compare cpm of enzyme samples to cpm of control samples that contain background control.

In test [4] the target is T2, GSK3β (Homo sapiens, UniProt P49841).
T2 construct: purchased Upstate 14-306
T2 sequence (P49841 whole entry): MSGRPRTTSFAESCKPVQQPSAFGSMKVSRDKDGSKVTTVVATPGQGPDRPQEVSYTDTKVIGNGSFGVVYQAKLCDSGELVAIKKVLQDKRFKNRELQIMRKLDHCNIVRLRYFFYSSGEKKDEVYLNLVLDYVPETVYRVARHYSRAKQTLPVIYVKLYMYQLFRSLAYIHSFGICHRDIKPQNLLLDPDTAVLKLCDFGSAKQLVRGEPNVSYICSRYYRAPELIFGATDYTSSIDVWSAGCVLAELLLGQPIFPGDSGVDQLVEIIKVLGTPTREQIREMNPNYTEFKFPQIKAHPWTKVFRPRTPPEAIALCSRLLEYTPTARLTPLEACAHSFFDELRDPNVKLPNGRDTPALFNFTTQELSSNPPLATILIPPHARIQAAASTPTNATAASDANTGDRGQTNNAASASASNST
The test is described as follows: GSK3β kinase assay. It counts as biochemical. How it is done:
• 1. Reaction Buffer: 8 mM MOPS, pH 7.0, 0.2 mM EDTA, 110 mM magnesium acetate. • 2. GSK3β, active: 5-40 ng per assay point. Dilute to 0.5-4 ng/μl in Reaction Buffer containing 0.03% Brij-35. • 3. Phospho-Glycogen Synthase Peptide-2 (Catalog #12-241): Prepare a 250 μM stock. Use 10 μl per assay point for a final assay concentration of 62.5 μM per assay point. • 4. [γ-^32P]ATP: Stock 1 mCi/100 μl (3000 Ci/mmol, obtained from Perkin Elmer, Cat. # BLU002A). Make 10 μl aliquots (100 μCi/vial). Before starting the assay, dilute an aliquot to 1 μCi/μl with 90 μl of 75 mM magnesium chloride and 500 μM unlabeled ATP in 20 mM MOPS, pH 7.2, 25 mM β-glycerol phosphate, 5 mM EGTA, 1 mM sodium orthovanadate, 1 mM dithiothreitol.
• 1. Add 10 μl of Reaction Buffer per assay. • 2. Add 10 μl of substrate peptide [final assay concentration of 62.5 μM]. • 3. Add 10 μl of GSK3β, active [5-40 ng per assay]. • 4. Add 10 μl of the diluted [^32P]ATP mixture. • 5. Incubate for 30 minutes at 30° C. • 6. Spot 25 μl onto the center of a 2 cm×2 cm P81 paper square. • 7. Wash the assay squares five times with 0.75% phosphoric acid. • 8. Wash the assay squares once with acetone. • 9. Transfer the assay squares to vial and add 5 ml scintillation cocktail. • 10. Read in scintillation counter. Compare cpm of enzyme samples to cpm of control samples that contain no enzyme (background control).

Where [5] appears, read: read-out: RPS6KA2 Inhibition (IC50).
Where [6] appears, read: kinase panel, 10 μM ATP, read-out: GSK3β IC50.
The mark [7] stands for this setting: read-out: GSK3B Inhibition (IC50).

Molecules are shown by their SMILES. Structures can show the parent of a compound that is named as a salt. Where two headings read alike, the source gives them in different places. A value given as a limit tells only on which side of the number the result lay.

Regarding `CC(C)N1CCN(C(=O)COc2ccc(-c3n[nH]c4c3C(=O)c3c(NC(=O)NN5CCOCC5)cccc3-4)cc2)CC1` [Compound A37], the IC50 in test [1] is 85 nM; in test [2], below 100000 nM; in test [3] (kinase panel, 10 μM ATP, read-out: Ribosomal protein S6 kinase 3 (Rsk3) IC50), 10 to 100 nM; in test [3] (setting [5]) it was below 50 nM; in test [4] (setting [6]) it was below 3 nM; in test [4] (setting [7]), below 5 nM.
As to `COCCN1CCN(Cc2ccc(-c3n[nH]c4c3C(=O)c3c(NC(=O)NN5CCOCC5)cccc3-4)cc2)CC1` [Compound B16, N-[3-(4-{[4-(2-methoxyethyl)piperazinyl]methyl}phenyl)-4-oxoindeno[2,3-d]pyrazol-5-yl](morpholin-4-ylamino)carboxamide dihydrochloride], the IC50 was 54 nM in test [1] (3 days, calcein AM, flow cytometry); below 10000 nM in test [2]; below 500 nM in test [3] (setting [5]); below 100 nM in test [4] (setting [6]); below 5 nM in test [4] (setting [7]).

The values above are taken from patent US20080146555A1, “Uses of Kinase Inhibitors and Compositions Thereof” (GPC Biotech, Inc, priority 2004, published 2008).
